What was measured:
Fusarium virguliforme = Fusarium virguliforme in vitro cell test; type: cell-based; settings: 144 h, 20 ppm of active ingredient, liquid culture, 6 days incubation, read-out: efficacy (inhibition of fungal growth)
Procedure: (§1) a-13. Fusarium virguliforme In Vitro Cell Test [table] Fungicides were solubilized in DMSO and the solution used to prepare the required range of concentrations. The final concentration of DMSO used in the assay was ≤1%. A spore suspension of F. virguliforme was prepared and diluted to the desired spore density. Fungicides were evaluated for their ability to inhibit spore germination and mycelium growth in liquid culture assay. The compounds were added in the desired concentration to the culture medium with spores. After 6 days incubation, fungi-toxicity of compounds was determined by spectrometric measurement of mycelium growth. Inhibition of fungal growth was determined by comparing the absorbance values in wells containing the fungicides with the absorbance in control wells without fungicides.

Sphaerotheca fuliginea = assay: In vivo preventive test on Sphaerotheca fuliginea (powdery mildew on cucurbits); settings: 500 ppm of active ingredient; preventive spray on gherkin; evaluated 8 days after inoculation
Procedure: (§2) a-5. In Vivo Preventive Test on Sphaerotheca fuliginea (Powdery Mildew on Cucurbits) [table] The active ingredients were made soluble and homogenized in a mixture of Dimethyl sulfoxide/Acetone//Tween® 80 and then diluted in water to the desired concentration. The young plants of gherkin were treated by spraying the active ingredient prepared as described above. Control plants were treated only with an aqueous solution of Acetone/Dimethyl sulfoxide/Tween® 80. After 24 hours, the plants were contaminated by spraying the leaves with an aqueous suspension of Sphaerotheca fuliginea spores.

[1] = system: Colletotrichum lindemuthianum; assay: Colletotrichum lindemuthianum in vitro cell test; type: cell-based; settings: 144 h, 20 ppm of active ingredient, liquid culture, 6 days incubation, read-out: efficacy (inhibition of fungal growth)
Procedure: as §1, with “a-11. Colletotrichum lindemuthianum In” for “a-13. Fusarium virguliforme In”, “of C. lindemuthianum” for “of F. virguliforme”, “inhibit spores” for “inhibit spore”

[2] = system: Colletotrichum lindemuthianum; assay: In vivo preventive test on Colletotrichum lindemuthianum (leaf spot on bean); settings: 500 ppm of active ingredient; preventive spray on bean; evaluated 7 days after inoculation
Procedure: as §2, with “a-6.” for “a-5.”, “Colletotrichum lindemuthianum (Leaf Spot” for “Sphaerotheca fuliginea (Powdery Mildew”, “Bean)” for “Cucurbits)”, “bean” for “gherkin”, “Colletotrichum lindemuthianum” for “Sphaerotheca fuliginea”, “spores. The contaminated bean plants were incubated for 24 hours at 20° C. and at 100% relative humidity and then for 6 days at 20° C. and at 90% relative humidity.” for “spores.”

Fusarium culmorum = Fusarium culmorum in vitro cell test; type: cell-based; settings: 96 h, 20 ppm of active ingredient, liquid culture, 4 days incubation, read-out: efficacy (inhibition of fungal growth)
Procedure: a-8. Fusarium culmorum In Vitro Cell Test
Fungicides were solubilized in DMSO and the solution used to prepare the required range of concentrations. The final concentration of DMSO used in the assay was ≤1%.
A spore suspension of F. culmorum was prepared and diluted to the desired spore density.
Fungicides were evaluated for their ability to inhibit spore germination and mycelium growth in liquid culture assay. The compounds were added in the desired concentration to the culture medium with spores. After 4 days incubation, fungi-toxicity of compounds was determined by spectrometric measurement of mycelium growth. Inhibition of fungal growth was determined by comparing the absorbance values in wells containing the fungicides with the absorbance in control wells without fungicides.

Septoria tritici [3] = assay: In vivo preventive test on Septoria tritici (leaf spot on wheat); settings: 500 ppm of active ingredient; preventive spray on wheat; evaluated 17 to 19 days after inoculation
Procedure: as §2, with “a-4.” for “a-5.”, “Septoria tritici (Leaf Spot” for “Sphaerotheca fuliginea (Powdery Mildew”, “Wheat)” for “Cucurbits)”, “wheat” for “gherkin”, “Septoria tritici” for “Sphaerotheca fuliginea”, “spores. The contaminated wheat plants were incubated for 72 hours at 17° C. and at 100% relative humidity and then for 14 to 16 days at 20° C. and at 90% relative humidity.” for “spores.”

Pyrenophora teres [4] = assay: Pyrenophora teres in vitro cell test; type: cell-based; settings: 144 h, 20 ppm of active ingredient, liquid culture, 6 days incubation, read-out: efficacy (inhibition of fungal growth)
Procedure: as §1, with “a-12. Pyrenophora teres” for “a-13. Fusarium virguliforme”, “P. teres” for “F. virguliforme”

Ustilago avenae = Ustilago avenae in vitro cell test; type: cell-based; settings: 96 h, 20 ppm of active ingredient, liquid culture, 4 days of incubation, read-out: efficacy (inhibition of fungal growth)
Procedure: a-10. Ustilago avenae In Vitro Cell Test [table] Fungicides were solubilized in DMSO and the solution used to prepare the required range of concentrations. The final concentration of DMSO used in the assay was ≤1%. Inoculum was prepared from a pre-culture of U. avenae grown in liquid medium and diluted to the desired optical density (OD). Fungicides were evaluated for their ability to inhibit mycelium growth in liquid culture assay. The compounds were added in the desired concentrations to culture medium containing the spore suspension. After 4 days of incubation, the fungicidal efficacy of compounds was determined by spectrometric measurement of mycelium growth. Inhibition of fungal growth was determined by comparing the absorbance values in wells containing the fungicides with the absorbance in control wells without fungicides.

Alternaria brassicae = assay: In vivo preventive test on Alternaria brassicae (leaf spot on radish or cabbage); settings: 500 ppm of active ingredient; preventive spray on radish or cabbage; evaluated 3 to 4 days after inoculation
Procedure: as §2, with “a-1.” for “a-5.”, “Alternaria brassicae (Leaf Spot” for “Sphaerotheca fuliginea (Powdery Mildew”, “Radish or Cabbage)” for “Cucurbits)”, “radish or cabbage” for “gherkin”, “Alternaria brassicae” for “Sphaerotheca fuliginea”, “spores. The contaminated radish or cabbage plants were incubated for 3 to 4 days at 20° C. and at 100% relative humidity.” for “spores.”

Alternaria alternata = Alternaria alternata in vitro cell test; type: cell-based; settings: 120 h, 20 ppm of active ingredient, liquid culture, 5 days incubation, read-out: efficacy (inhibition of fungal growth)
Procedure: as §1, with “a-7. Alternaria alternata” for “a-13. Fusarium virguliforme”, “A. alternata” for “F. virguliforme”, “5” for “6”

Fusarium graminearum = type: in vivo; settings: 500 ppm of active ingredient; preventive spray on wheat; evaluated 5 days after inoculation
Botrytis cinerea [5] = assay: In vivo preventive test on Botrytis cinerea (grey mould); settings: 500 ppm of active ingredient; preventive spray on gherkin or cabbage; evaluated 4 to 5 days after inoculation
Procedure: as §2, with “a-2.” for “a-5.”, “Botrytis cinerea (Grey Mould)” for “Sphaerotheca fuliginea (Powdery Mildew on Cucurbits)”, “gherkin or cabbage” for “gherkin”, “Botrytis cinerea” for “Sphaerotheca fuliginea”, “spores. The contaminated gherkin plants were incubated for 4 to 5 days at 17° C. and at 90% relative humidity. The contaminated cabbage plants were incubated for 4 to 5 days at 20° C. and at 100% relative humidity.” for “spores.”

Botrytis cinerea [6] = assay: Botrytis cinerea in vitro cell test; type: cell-based; settings: 144 h, 20 ppm of active ingredient, liquid culture, 6 days incubation, read-out: efficacy (inhibition of fungal growth)
Procedure: as §1, with “a-14. Botrytis cinerea” for “a-13. Fusarium virguliforme”, “B. cinerea” for “F. virguliforme”

Pyricularia Oryzae = assay: microbe, parasite or virus in culture; type: cell-based; settings: 120 h, read-out: efficacy (inhibition of fungal growth)
Pyrenophora teres [7] = assay: In vivo preventive test on Pyrenophora teres (net blotch on barley); settings: 500 ppm of active ingredient; preventive spray on barley; evaluated 10 days after inoculation
Procedure: as §2, with “a-3.” for “a-5.”, “Pyrenophora teres (Net Blotch” for “Sphaerotheca fuliginea (Powdery Mildew”, “Barley)” for “Cucurbits)”, “barley” for “gherkin”, “Pyrenophora teres” for “Sphaerotheca fuliginea”

Septoria tritici [8] = assay: Septoria tritici in vitro cell test; type: cell-based; settings: Zymoseptoria tritici, 168 h; 20 ppm of active ingredient; liquid culture; 7 days incubation; read-out: efficacy (inhibition of fungal growth)
Procedure: as §1, with “a-15. Septoria tritici” for “a-13. Fusarium virguliforme”, “S. tritici” for “F. virguliforme”, “After 6 days incubation, fungi-toxicity of compounds was determined by spectrometric measurement of mycelium growth.” left out

Cc1ccc(C[C@H]2CON=C(c3cc(C)nnc3Oc3cccc(Cl)c3F)N2)c(Cl)c1 [compound (I), (5S)-3-[3-(3-chloro-2-fluorophenoxy)-6-methylpyridazin-4-yl]-5-(2-chloro-4-methylbenzyl)-5,6-dihydro-4H-1,2,4-oxadiazine]
≥ 70%: inhibition at 20 ppm (Fusarium virguliforme) | inhibition at 20 ppm [1] | inhibition at 20 ppm (Fusarium culmorum) | inhibition at 20 ppm (Pyrenophora teres [4]) | inhibition at 20 ppm (Ustilago avenae) | inhibition at 20 ppm (Alternaria alternata) | inhibition at 20 ppm (Botrytis cinerea [6]) | inhibition at 20 ppm (Pyricularia Oryzae) | inhibition at 20 ppm (Septoria tritici [8])
at least 70%: efficacy (Sphaerotheca fuliginea) | efficacy [2] | efficacy (Septoria tritici [3]) | efficacy (Alternaria brassicae) | efficacy (Fusarium graminearum) | efficacy (Botrytis cinerea [5]) | efficacy (Pyrenophora teres [7])

Source: US20250280829A1, “USE OF (5S)-3-[3-(3-CHLORO-2-FLUOROPHENOXY)-6-METHYLPYRIDAZIN-4-YL]-5-(2-CHLORO-4-METHYLBENZYL)-5,6-DIHYDRO-4H-1,2,4-OXADIAZINE FOR CONTROLLING UNWANTED MICROORGANISMS” (Bayer Aktiengesellschaft, priority 2022, published 2025)
